Experimental findings from patent US7977355B2, “N-(2-hydroxyethyl)-N-methyl-4-(quinolin-8-yl(1-(thiazol-4-ylmethyl)piperidin-4-ylidene)methyl” (Astrazeneca AB, priority 2006, dated 2011) are described below.

SMILES strings stand for the structures.

Data set [1] can be described thus: Thermodynamic solubility. The format is physicochemical. The settings on record: aqueous buffer, thermodynamic from solid, 25° C., 100 mM phosphate buffer at pH 7.4. From the text: An aliqout of the saturated solution was then taken and its concentration measured by liquid chromatography/tandem mass spectrometry (LC/MS/MS). LC/MS/MS experimental conditions and instrumental parameters are described in detail in the LC/MS/MS section.

The nature of data set [2]: Log D (shake-flask). The settings on record: octanol/buffer. The format is physicochemical. The protocol:
The determination of log D was based on the shake-flask principle. The compound(s) of the present invention was slurried in an octanol-saturated buffer solution and sonicated to promote dissolution. The solution was filtered to remove any insoluble. After an initial sample was taken, the solution volume is adjusted to 10 ml, and a known volume of buffer-saturated octanol is added. The two-phase solution is mixed, then separated by centrifugation. A second sample from the bottom layer (aqueous layer) was then taken. Both samples, which represented the solution concentrations of the compound before and after addition of octanol, were determined by LC/MS/MS. The determined concentrations were used to calculated the log D value.

Broadly, the solubility is the concentration that dissolves in the medium under given conditions. Read a low solubility as a poorly soluble substance. As a reminder, the logD is the decadic logarithm of the distribution of all forms, ionised or not, between an organic phase and buffer at a given pH. As to `CN(CCO)C(=O)c1ccc(C(=C2CCN(Cc3cscn3)CC2)c2cccc3cccnc23)cc1` [compound of the invention, N-(2-hydroxyethyl)-N-methyl-4-(quinolin-8-yl(1-(thiazol-4-ylmethyl)piperidin-4-ylidene)methyl)benzamide], in data set [1], the solubility at 24 h was above 500 µM. In data set [2], this molecule registered a logD of 1.6.
